Reference: BigSolDB 2.1

O=c1[nH]cc(F)c(=O)[nH]1
solubility (mole fraction)
Details | 293.15 K | 298.15 K | 303.15 K | 308.15 K | 313.15 K | 318.15 K | 323.15 K
in ethanol | 0.00246 | 0.00277 | 0.00307 | 0.0034 | 0.00382 | 0.00411 | 0.00455
in water | 0.00155 | 0.00176 | 0.00195 | 0.00214 | 0.00241 | 0.00278 | 0.00312
